Experimental data published in ChEMBL document CHEMBL1201862, “PubChem BioAssay data set” (2004).
The source made the active and inactive calls. No stated cut-off is given here; in the data, actives have a measured IC50 and inactives only a lower limit.

Biological target: Envelope glycoprotein gp160 (Human immunodeficiency virus 1, UniProt Q6QLK5)
Assay: inhibitors of HIV fusion peptide binding, primary screen, biochemical, uHTS, fluorescence dequenching (AID 1986)

Envelope glycoprotein gp160, sequence (Q6QLK5 whole entry, the tested form may be a part): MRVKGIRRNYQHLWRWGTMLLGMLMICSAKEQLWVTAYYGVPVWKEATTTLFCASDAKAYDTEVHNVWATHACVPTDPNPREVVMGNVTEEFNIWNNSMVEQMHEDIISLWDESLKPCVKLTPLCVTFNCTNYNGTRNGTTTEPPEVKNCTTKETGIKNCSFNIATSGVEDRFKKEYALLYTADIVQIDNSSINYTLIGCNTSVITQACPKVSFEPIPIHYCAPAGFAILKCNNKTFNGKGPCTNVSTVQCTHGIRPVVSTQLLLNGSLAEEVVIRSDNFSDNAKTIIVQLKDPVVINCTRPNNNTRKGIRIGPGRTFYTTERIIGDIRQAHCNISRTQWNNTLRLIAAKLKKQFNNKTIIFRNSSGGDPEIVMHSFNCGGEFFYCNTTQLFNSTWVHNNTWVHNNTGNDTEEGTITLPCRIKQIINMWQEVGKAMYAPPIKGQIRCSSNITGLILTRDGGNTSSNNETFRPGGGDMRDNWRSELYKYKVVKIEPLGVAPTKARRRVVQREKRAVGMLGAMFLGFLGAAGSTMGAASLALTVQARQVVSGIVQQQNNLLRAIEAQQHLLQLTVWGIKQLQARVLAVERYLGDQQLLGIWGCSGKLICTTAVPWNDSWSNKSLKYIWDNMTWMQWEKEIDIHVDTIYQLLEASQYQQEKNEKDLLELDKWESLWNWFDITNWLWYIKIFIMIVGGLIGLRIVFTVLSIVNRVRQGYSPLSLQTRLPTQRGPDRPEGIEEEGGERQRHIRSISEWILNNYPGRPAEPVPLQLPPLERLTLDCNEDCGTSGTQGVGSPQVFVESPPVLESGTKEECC

CCCCCNC(=O)c1ccc2c(=O)[nH]c3c(C(=O)NCC4CCCO4)sc(=S)n3c2c1 (stereo not drawn)
IC50: 20 µM (active)

COc1ccc(-c2csc(NC(=O)c3ccccc3NS(=O)(=O)c3ccc(C)cc3)n2)cc1
IC50: 12.4 µM (active)

CC(C)(C)c1ccc2c(c1)OC(C(=O)N/N=C\c1ccc(-c3cccc(C(=O)O)c3)o1)CO2 (stereo not drawn)
IC50: 14.1 µM (active)
